Assay results as given in patent US9309242B2, “Substituted pyrido[2,3-b]pyrazines as FGFR kinase inhibitors” (priority 2011, dated 2016).
pIC50: −log10 of the molar value. Where two headings read alike, the source gives them in different places.

Legend:
[1] = molecular target: T1, Ba/F3-FGFR3-transfected cells (Homo sapiens, UniProt P22607); assay: Ba/F3-FGFR3 (minus IL3) cellular proliferation assay, Alamar Blue; format: cell-based
T1 construct: BAF3-FGFR3 (MIN IL3) pIC50; other: minus IL3
Outline: (§1)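 Ba/F3 cells transfected with FGFR3, 20000/well in phenol red-free RPMI-1640 with 10% FBS, exposed to compound for 24 h at 37 °C, 5% CO2. Alamar Blue (resazurin) added for 4 h more; fluorescence read at ex 540/em 590 nm. Counterscreen run the same way with 10 ng/ml murine IL3.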

[2] = system: Ba/F3-KDR-transfected cells; assay: Ba/F3-KDR (plus IL3) cellular proliferation assay, counterscreen with 10 ng/ml murine IL3; format: cell-based; conditions: for BAF3-KDR (PLUS IL3) pIC50: plus IL3 (10 ng/ml murine IL3, counterscreen); for IC50: read-out: BAF3-KDR (PLUS IL3) pIC50 (converted)
Procedure: Ba/F3-KDR (Minus IL3 or Plus IL3) (Cellular Proliferation Assay)
In a 384 well plate, 100 n1 of compound dilution in DMSO was sprayed before adding 50 μl cell culture medium (phenol red free RPMI-1640, 10% FBS, 2 mM L-Glutamine and 50 μg/ml Gentamycin) containing 20000 cells per well of Ba/F3-KDR-transfected cells. Cells were put in an incubator at 37° C. and 5% CO2. After 24 hours, 10 μl of Alamar Blue solution (0.5 mM K3Fe(CN)6, 0.5 mM K4Fe(CN)6, 0.15 mM Resazurin and 100 mM Phosphate Buffer) was added to the wells, incubated for 4 hours at 37° C. and 5% CO2 before RFU's (Relative Fluorescence Units) (ex. 540 nm., em. 590 nm.) were measured in a fluororescence plate reader.
As a counterscreen the same experiment was performed in the presence of 10 ng/ml murine IL3.

KDR (h) = KDR (h) (Homo sapiens, UniProt P35968); assay: KDR (VEGFR2) (enzymatic assay), TR-FRET; format: biochemical; conditions: for IC50: read-out: VEGFR 2 (KDR) pIC50 (converted)
Outline: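 Human KDR (150 ng/ml) was reacted with 500 nM Btn-Flt3 and 3 μM ATP in 50 mM HEPES pH 7.5, 6 mM MnCl2, 1 mM DTT, 0.1 mM Na3VO4, 0.01% Triton X-100, 1% DMSO, for 120 min at room temperature. Phosphorylation detected by TR-FRET (Eu-anti-P-Tyr/SA-XL665, 60 min), read in RFU.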

FGFR2 (h) = FGFR2 (h) (Homo sapiens, UniProt P21802); assay: FGFR2 (enzymatic assay), TR-FRET; format: biochemical; conditions: enzymatic assay, read-out: FGFR 2 pIC50 (converted)
Sequence of FGFR2 (h) (P21802 22-821): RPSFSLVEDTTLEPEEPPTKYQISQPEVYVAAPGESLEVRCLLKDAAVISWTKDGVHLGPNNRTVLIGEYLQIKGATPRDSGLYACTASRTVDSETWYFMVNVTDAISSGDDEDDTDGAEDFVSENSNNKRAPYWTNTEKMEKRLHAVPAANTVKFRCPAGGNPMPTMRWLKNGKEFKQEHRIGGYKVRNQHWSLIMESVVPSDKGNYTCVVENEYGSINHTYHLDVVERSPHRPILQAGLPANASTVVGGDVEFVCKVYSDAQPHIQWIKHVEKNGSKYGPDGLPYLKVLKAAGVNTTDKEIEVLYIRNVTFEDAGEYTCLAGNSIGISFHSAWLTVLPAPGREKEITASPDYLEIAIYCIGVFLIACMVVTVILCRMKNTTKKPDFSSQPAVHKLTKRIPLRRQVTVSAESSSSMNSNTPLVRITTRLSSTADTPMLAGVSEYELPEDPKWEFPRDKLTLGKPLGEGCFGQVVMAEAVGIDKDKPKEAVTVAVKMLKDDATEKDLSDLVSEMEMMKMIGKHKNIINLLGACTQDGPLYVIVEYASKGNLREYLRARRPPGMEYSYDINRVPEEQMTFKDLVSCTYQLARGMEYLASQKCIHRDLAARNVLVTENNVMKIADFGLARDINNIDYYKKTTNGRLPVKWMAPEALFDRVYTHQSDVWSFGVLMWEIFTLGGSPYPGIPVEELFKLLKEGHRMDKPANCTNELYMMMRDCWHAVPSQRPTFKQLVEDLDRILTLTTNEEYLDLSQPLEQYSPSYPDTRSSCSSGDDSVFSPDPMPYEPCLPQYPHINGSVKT
Outline: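 Compound (1% DMSO final) was combined with FGFR2 (h), 150 ng/ml, plus 0.4 μM ATP and 500 nM biotin-Flt3 in Mn2+-containing HEPES buffer at pH 7.5.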

FGFR3 (h) = FGFR3 (h) (Homo sapiens, UniProt P22607); assay: FGFR3 (enzymatic assay), TR-FRET; format: biochemical; conditions: read-out: FGFR 3 pIC50 (converted)
Description: Time-Resolved Fluorescence Resonance Energy Transfer (TR-FRET) signal (ex340 nm.

[3] = molecular target: T2, Ba/F3-KDR-transfected cells (Homo sapiens, UniProt P35968); assay: Ba/F3-KDR (minus IL3) cellular proliferation assay, Alamar Blue; format: cell-based
T2 construct: BAF3-KDR (MIN IL3) pIC50; other: minus IL3
T2 sequence (P35968 whole entry, change not shown): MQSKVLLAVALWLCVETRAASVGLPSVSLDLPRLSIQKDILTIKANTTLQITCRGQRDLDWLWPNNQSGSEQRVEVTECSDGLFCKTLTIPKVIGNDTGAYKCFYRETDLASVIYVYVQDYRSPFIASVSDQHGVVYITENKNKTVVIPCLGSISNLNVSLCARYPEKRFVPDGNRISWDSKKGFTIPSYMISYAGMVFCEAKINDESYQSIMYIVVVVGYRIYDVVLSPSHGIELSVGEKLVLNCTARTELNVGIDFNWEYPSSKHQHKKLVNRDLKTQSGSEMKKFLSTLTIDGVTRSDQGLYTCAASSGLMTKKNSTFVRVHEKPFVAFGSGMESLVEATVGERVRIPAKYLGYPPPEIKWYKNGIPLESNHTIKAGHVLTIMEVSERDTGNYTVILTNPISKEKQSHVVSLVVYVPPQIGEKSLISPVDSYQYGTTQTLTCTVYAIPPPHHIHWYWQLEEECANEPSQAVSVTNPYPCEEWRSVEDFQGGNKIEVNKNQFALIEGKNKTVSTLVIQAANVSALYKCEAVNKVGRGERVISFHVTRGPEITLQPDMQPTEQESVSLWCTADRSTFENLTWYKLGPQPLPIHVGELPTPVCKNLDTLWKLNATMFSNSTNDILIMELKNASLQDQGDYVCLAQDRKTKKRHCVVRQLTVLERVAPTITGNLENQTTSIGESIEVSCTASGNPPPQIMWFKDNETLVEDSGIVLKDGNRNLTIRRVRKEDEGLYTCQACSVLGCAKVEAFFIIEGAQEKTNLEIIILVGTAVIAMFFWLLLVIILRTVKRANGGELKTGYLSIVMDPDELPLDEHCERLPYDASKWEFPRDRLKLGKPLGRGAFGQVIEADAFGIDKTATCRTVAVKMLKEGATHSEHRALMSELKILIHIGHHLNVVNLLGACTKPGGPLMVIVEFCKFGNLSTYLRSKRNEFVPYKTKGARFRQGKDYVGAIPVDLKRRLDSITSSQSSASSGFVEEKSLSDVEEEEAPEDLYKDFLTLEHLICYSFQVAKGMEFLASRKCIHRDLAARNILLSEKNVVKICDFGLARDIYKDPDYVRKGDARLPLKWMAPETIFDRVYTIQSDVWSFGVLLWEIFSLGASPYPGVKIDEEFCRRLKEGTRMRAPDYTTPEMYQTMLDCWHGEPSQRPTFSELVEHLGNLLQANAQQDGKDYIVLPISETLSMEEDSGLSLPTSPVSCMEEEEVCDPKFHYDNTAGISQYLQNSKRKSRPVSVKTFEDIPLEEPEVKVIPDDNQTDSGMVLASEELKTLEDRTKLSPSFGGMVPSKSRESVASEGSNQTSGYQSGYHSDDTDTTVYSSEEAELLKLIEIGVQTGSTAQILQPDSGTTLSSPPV
Outline: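 Ba/F3-KDR-transfected cells, 20000 per well in phenol red free RPMI-1640 with 10% FBS, exposed to compound 24 hours at 37° C, 5% CO2; Alamar Blue then added for 4 hours and fluorescence read (ex. 540 nm, em. 590 nm). Plus-IL3 counterscreen run identically with 10 ng/ml murine IL3.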

FGFR1 (h) = FGFR1 (h) (Homo sapiens, UniProt P11362); assay: FGFR1 (enzymatic assay), TR-FRET; format: biochemical; conditions: read-out: FGFR 1 pIC50 (converted)
Sequence of FGFR1 (h) (P11362 22-822): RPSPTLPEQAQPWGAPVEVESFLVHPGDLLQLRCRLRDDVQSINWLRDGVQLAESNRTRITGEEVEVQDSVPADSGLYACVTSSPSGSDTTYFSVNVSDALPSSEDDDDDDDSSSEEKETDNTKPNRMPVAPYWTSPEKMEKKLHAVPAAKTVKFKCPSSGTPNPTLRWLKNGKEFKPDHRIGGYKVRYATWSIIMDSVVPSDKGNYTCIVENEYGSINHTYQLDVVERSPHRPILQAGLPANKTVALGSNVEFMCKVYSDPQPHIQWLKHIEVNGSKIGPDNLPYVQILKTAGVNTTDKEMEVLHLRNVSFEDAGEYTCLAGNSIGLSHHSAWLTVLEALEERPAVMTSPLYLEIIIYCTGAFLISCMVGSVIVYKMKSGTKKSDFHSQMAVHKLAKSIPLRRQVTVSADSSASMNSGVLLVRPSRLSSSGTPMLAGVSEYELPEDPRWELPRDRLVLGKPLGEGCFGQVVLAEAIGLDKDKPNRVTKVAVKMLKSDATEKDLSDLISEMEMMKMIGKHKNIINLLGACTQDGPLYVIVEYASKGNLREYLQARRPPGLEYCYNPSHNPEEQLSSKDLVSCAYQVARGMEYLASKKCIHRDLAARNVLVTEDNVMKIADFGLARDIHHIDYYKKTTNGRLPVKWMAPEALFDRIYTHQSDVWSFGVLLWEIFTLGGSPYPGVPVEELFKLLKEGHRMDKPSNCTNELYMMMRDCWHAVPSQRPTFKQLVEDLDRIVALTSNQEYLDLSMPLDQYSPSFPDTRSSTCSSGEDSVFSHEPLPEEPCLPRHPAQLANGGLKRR

[4] = system: Ba/F3-FGFR3-transfected cells; assay: Ba/F3-FGFR3 (plus IL3) cellular proliferation assay, counterscreen with 10 ng/ml murine IL3; format: cell-based; conditions: for BAF3-FGFR3 (PLUS IL3) pIC50: plus IL3 (10 ng/ml murine IL3, counterscreen); for IC50: read-out: BAF3-FGFR3 (PLUS IL3) pIC50 (converted)
Outline: as §1

[5] = molecular target: T3, Ba/F3-FGFR1-transfected cells (Homo sapiens, UniProt P11362); assay: Ba/F3-FGFR1 (minus IL3) cellular proliferation assay, Alamar Blue; format: cell-based
T3 construct: BAF3-FGFR1 (MIN IL3) pIC50; other: minus IL3
Outline: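 Ba/F3-FGFR1 cells (20000 per well) were exposed to compound for 24 h at 37 °C in RPMI-1640 with 10% FBS. Alamar Blue (resazurin) was then added for 4 h, and fluorescence was read at ex 540/em 590 nm.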

FGFR4 (h) = FGFR4 (h) (Homo sapiens, UniProt P22455); assay: FGFR4 (enzymatic assay), TR-FRET; format: biochemical; conditions: FGFR 4 pIC50, enzymatic assay
[6] = molecular target: Ba/F3-FGFR4-transfected cells (Homo sapiens, UniProt P22455); assay: Ba/F3-FGFR4 cellular proliferation assay, Alamar Blue; format: cell-based
Sequence of Ba/F3-FGFR4-transfected cells (P22455 whole entry, change not shown): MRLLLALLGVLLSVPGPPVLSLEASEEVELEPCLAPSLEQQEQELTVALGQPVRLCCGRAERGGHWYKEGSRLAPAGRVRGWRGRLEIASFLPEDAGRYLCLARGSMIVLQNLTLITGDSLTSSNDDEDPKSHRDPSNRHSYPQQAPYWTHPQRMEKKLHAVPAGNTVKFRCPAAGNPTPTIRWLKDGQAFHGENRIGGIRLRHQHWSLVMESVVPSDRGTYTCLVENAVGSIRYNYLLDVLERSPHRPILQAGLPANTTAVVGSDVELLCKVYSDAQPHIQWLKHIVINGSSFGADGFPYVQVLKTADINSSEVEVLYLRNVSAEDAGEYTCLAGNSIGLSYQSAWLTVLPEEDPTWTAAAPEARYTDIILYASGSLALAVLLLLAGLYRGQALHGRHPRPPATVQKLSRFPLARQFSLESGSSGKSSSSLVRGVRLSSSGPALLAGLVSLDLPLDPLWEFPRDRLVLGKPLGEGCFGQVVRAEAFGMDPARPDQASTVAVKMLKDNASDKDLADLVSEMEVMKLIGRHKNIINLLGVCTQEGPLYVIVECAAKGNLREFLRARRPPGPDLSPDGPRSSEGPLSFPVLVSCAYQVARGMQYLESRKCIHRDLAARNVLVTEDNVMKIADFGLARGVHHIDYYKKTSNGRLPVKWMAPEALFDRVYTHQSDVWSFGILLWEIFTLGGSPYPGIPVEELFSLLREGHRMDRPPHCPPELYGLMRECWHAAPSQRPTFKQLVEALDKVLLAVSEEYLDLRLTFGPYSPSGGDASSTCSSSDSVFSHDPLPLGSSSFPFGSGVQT
Outline: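 Ba/F3-FGFR4 cells (20000/well) in phenol red-free RPMI-1640 with 10% FBS are exposed to compound for 24 h at 37 °C, 5% CO2. Alamar Blue (resazurin) is then added for 4 h and fluorescence read at ex 540/em 590 nm.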

[7] = system: Ba/F3-FGFR1-transfected cells; assay: Ba/F3-FGFR1 (plus IL3) cellular proliferation assay, counterscreen with 10 ng/ml murine IL3; format: cell-based; conditions: for BAF3-FGFR1 (PLUS IL3) pIC50: plus IL3 (10 ng/ml murine IL3, counterscreen); for IC50: read-out: BAF3-FGFR1 (PLUS IL3) pIC50 (converted)
Outline: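 Ba/F3-FGFR1 cells (20000/well) in RPMI-1640 with 10% FBS exposed to compound for 24 h at 37° C., 5% CO2, then Alamar Blue (resazurin) added for 4 h; fluorescence read at ex 540/em 590 nm. Counterscreen run identically with 10 ng/ml murine IL3.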

[8] = average values if tested multiple times

T1 sequence (P22607 whole entry, change not shown): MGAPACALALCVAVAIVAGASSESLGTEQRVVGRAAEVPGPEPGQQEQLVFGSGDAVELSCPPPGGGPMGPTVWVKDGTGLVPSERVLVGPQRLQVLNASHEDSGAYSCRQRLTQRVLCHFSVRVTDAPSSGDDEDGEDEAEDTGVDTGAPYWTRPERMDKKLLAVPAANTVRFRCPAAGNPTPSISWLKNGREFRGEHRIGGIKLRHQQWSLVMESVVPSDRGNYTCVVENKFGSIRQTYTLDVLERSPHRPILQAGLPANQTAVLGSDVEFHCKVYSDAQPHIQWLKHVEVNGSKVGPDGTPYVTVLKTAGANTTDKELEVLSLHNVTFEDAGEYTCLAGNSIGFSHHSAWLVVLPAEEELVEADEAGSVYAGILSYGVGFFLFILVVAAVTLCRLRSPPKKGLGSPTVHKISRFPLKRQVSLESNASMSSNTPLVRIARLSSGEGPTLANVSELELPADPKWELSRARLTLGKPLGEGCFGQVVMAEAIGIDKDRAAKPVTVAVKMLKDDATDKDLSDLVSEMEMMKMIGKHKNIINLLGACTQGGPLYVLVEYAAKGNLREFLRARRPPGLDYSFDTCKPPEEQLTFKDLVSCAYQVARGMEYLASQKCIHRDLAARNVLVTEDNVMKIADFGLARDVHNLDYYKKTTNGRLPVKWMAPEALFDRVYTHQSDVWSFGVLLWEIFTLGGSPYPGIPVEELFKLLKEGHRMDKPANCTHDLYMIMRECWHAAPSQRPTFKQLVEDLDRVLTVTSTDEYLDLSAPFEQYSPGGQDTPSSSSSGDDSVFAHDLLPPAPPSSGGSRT

Row | SMILES | BAF3-FGFR3 (MIN IL3) pIC50 [1] | BAF3-KDR (PLUS IL3) pIC50 [2] | IC50 (KDR (h); [8]) [nM] | IC50 (FGFR2 (h); [8]) [nM] | IC50 (FGFR3 (h); [8]) [nM] | BAF3-KDR (MIN IL3) pIC50 [3] | IC50 (FGFR1 (h); [8]) [nM] | BAF3-FGFR3 (PLUS IL3) pIC50 [4] | BAF3-FGFR1 (MIN IL3) pIC50 [5] | pIC50 (FGFR4 (h); [8]) | BAF3-FGFR4 pIC50 [6] | BAF3-FGFR1 (PLUS IL3) pIC50 [7] | IC50 [2] [nM] | IC50 [4] [nM] | IC50 [7] [nM] | IC50 (FGFR2 (h)) [nM] | IC50 (FGFR3 (h)) [nM] | IC50 (FGFR1 (h)) [nM] | pIC50 (FGFR4 (h)) | IC50 (KDR (h)) [nM] | also measured
1 | COc1cc(OC)c(F)c(N(CC2CCC(=O)N2)c2ccc3ncc(-c4cnn(C)c4)nc3n2)c1 (stereo not drawn) [Compound 52] | 7.10 | <5 | 25.1 | 2.69 | 1.95 | 5.56 | 2.57 | <5 | 7.10 | 8.32 | 6.55 | <5 |  |  |  |  |  |  |  |  | 
2 | COc1cc(/N=c2\ccc3ncc(-c4cnn(C)c4)nc3n2CC2CCC(=O)N2)c(F)c(OC)c1 (stereo not drawn) [Compound 53] | 7.54 | <5 | 12.3 | 1.62 | 1.1 | 5.99 | 1.2 | <5 | 7.47 | 8.48 | 6.85 | <5 |  |  |  |  |  |  |  |  | 
3 | COc1cc(OC)c(F)c(N(CC(O)COC(C)C)c2ccc3ncc(-c4cnn(C)c4)nc3n2)c1F (stereo not drawn) [Compound 61] | 7.87 | <5 | 16.6 | 4.17 | 3.98 | 6.29 | 2.24 | <5 | 7.56 | 8.39 | 7.56 | <5 |  |  |  |  |  |  |  |  | 
4 | COc1cc(OC)c(F)c(N(CC(O)COC(C)C)c2ccc3ncc(-c4cnn(C)c4)nc3n2)c1F (stereo not drawn) [Compound 62] | 8.10 | <5 | 32.4 | 7.76 | 5.5 | 6.21 | 4.07 | <5 | 8.06 | 8.48 | 7.92 | <5 |  |  |  |  |  |  |  |  | 
5 | CNCCn1/c(=N/c2c(F)ccc(OC)c2Cl)ccc2ncc(-c3cnn(C)c3)nc21 [Compound 70] | 6.31 |  | 537 | 23.4 | 38.9 | <5 | 39.8 |  | 5.75 | 7.03 | 5.69 |  | > 10000 | > 10000 | > 10000 |  |  |  |  |  | 
6 | COc1cc(OC)c(F)c(N(Cc2nc3ccccc3[nH]2)c2ccc3ncc(-c4cnn(C)c4)nc3n2)c1 [Compound 80] | 8.08 |  | 10.2 | 2.63 | 1.82 | 5.79 | 1.35 |  | 7.76 | 8.81 | 7.36 |  | > 10000 | > 10000 | > 10000 |  |  |  |  |  | 
7 | CNCCn1/c(=N/c2c(Cl)c(OC)cc(OC)c2Cl)ccc2ncc(-c3cnn(C)c3)nc21 [Compound 82] | ~6.61 |  | 490 | 10.7 | 14.1 | <5 | 11.7 |  | 6.67 | 6.74 | 5.43 |  | > 10000 | > 10000 | > 10000 |  |  |  |  |  | 
8 | COc1ccc(Cl)c(N(CC2CCC(=O)N2)c2ccc3ncc(-c4cnn(C)c4)nc3n2)c1Cl (stereo not drawn) [Compound 94] | ~5.56 | <5 |  |  |  | <5 |  | <5 | 5.52 |  | <5 | <5 |  |  |  | 49 | 81.3 | 97.7 | 6.17 |  | VEGFR 2 (KDR) pIC50 (KDR (h)): <6
9 | CNCCn1/c(=N/c2c(F)c(OC)cc(OC)c2F)ccc2ncc(-c3cn[nH]c3)nc21 [Compound 121] | 6.88 |  |  |  |  | 5.25 |  |  | 7.38 |  | 6.08 |  | > 10000 | > 10000 | > 10000 | 2.57 | 1 | 1.62 | 8.53 | 26.9 | 
10 | COc1cc(/N=c2\ccc3ncc(-c4cnn(C)c4)nc3n2CCCN2CCCC2=O)cc(OC)c1 [Compound 133] | ~7.58 |  |  |  |  | 6.39 |  |  | 7.30 |  | 6.73 |  | > 10000 | > 10000 | > 10000 | 1.23 | 0.724 | 1 | 8.80 | 5.89 | 
11 | COc1cc(/N=c2\ccc3ncc(-c4cnn(C)c4)nc3n2CCN2CCCC2=O)cc(OC)c1 [Compound 150] | ~7.06 |  |  |  |  | 5.34 |  |  | 6.80 |  | 6.18 |  | > 10000 | > 10000 | > 10000 | 2.51 | 3.55 | 3.8 | 7.83 | 30.9 | 
12 | COc1cc(/N=c2\ccc3ncc(-c4cnn(C)c4)nc3n2CC2CCC(=O)N2C)c(F)c(OC)c1 (stereo not drawn) [Compound 160] | 7.20 | <5 |  |  |  | 5.89 |  | <5 | 7.58 |  | 6.99 | <5 |  |  |  | 1.82 | 1.07 | 1.17 | ~8.47 | 7.24 | 
13 | COc1cc(OC)c(F)c(N(CC2CCC(=O)N2C)c2ccc3ncc(-c4cnn(C)c4)nc3n2)c1 (stereo not drawn) [Compound 161] | 6.08 | <5 |  |  |  | <5 |  | <5 | 6.26 |  | 5.78 | <5 |  |  |  | 10 | 6.92 | 20 | 7.43 | 126 | 
